In data set [1] the test system is SCN. The settings on record: for SCN Population Densities 34 DAP / SCN Population Densities 64 DAP / SCN Population Densities harvest / Biomass at harvest, total / Biomass at harvest, seed: susceptible soybean; for SCN Population Densities 34 DAP: 34 days after planting; for SCN Population Densities 64 DAP: 64 days after planting; for Biomass at harvest, total: dry weight of all plants per microplot; for Biomass at harvest, seed: seed weight per microplot. From the text: Microplots were constructed by inserting 1-m-diameter by 0.25-m-tall circles of plastic drainage pipe into the soil in a field on a university-owned research farm located 10 km (6 miles) due west of Ames, IA. The field was not infested with SCN prior to being infested for the experiment.
The soil in the top 20 cm of each microplot was loosened, turned over, and artificially infested with approximately 570,000 SCN eggs contained within cysts in 1 liter of soil from greenhouse cultures. The SCN inoculum was applied in a band across the middle of the microplot (FIG. 5A), then 1.65 L of treatment solution were applied over the infested soil. […] Two different control treatments consisted of microplots receiving 1.65 L of autoclaved, deionized water and microplots receiving 1.65 L of the solvent used to dilute the compounds. The SCN-infested soil inoculum and applied liquid treatment were rototilled into the soil in each microplot, then 40 seeds of the SCN-susceptible variety “Williams 82” were planted in a single, central row within each microplot (FIG. 5B). Similarly, seeds of the SCN-resistant variety “Jack” were planted in microplots infested with SCN inoculum and treated with water as a third control treatment. There were four replications of each of the six treatments arranged in a randomized complete block design. Microplots were spaced 1 m apart in rows separated by 3 m to avoid cross contamination among microplots (FIG. 5F). Plants were grown for the entire 2020 growing season (FIGS. 5C through 5H).
The total number of plants growing in each microplot were counted (i.e., a “stand count”) 34 days after planting. A total of five soil cores, 2 cm in diameter and 15 to 20 cm deep, were collected from the root zone on either side of the row of soybean plants in each microplot 34 days after planting, 64 days after planting, and when the plants were removed from the microplots to determine the SCN population densities. SCN requires approximately 30 days to complete a single generation. […] SCN cysts (dead females full of eggs) were extracted from the soil samples using a wet sieving method, and eggs were released from the recovered cysts by crushing cysts with a motorized rubber stopper. Recovered eggs were stained with acid fuchsin and counted under a microscope to determine their number per 100 cm^3 of soil.
The stems of soybean plants in each microplot were cut at the soil line, and all plants from each microplot were placed in large paper bags and stored in an unheated shed until they were further processed. The dry weight of all plants in each microplot was determined (total plant biomass at harvest), and then all plants from each microplot were fed through a plot combine to collect and weigh the seeds (seed biomass).

In data set [2] the test system is SCN eggs. In words: SCN hatching assay (continuous and short-term exposure). Particulars: in vivo.
Description: Two similar assays ran synchronously. For both, approximately 300 eggs were pipetted onto 20 mm-diameter plastic microsieves and placed in a six-well plate and incubated at 25° C. in 3 mL of treatment (FIG. 1A). In a continuous exposure assay, eggs (FIG. 1B) were incubated in treatments for 15 days, and in a short-term exposure assay, eggs were incubated in treatments for one day, rinsed, then incubated in deionized water for 14 days. The number of hatched second-stage juveniles (FIG. 1B) was determined for both assays after 3, 6, 9, 12, and 15 days when the microsieves containing the eggs were moved to an empty well and fresh treatment solution was added. […] Compounds were tested over twelve different experimental runs in total, with some tested three times, others twice, and some once.
The number of hatched and unhatched juveniles of SCN in each treatment were subjected to an analysis with a quasibinomial generalized linear model to estimate the percent hatching for each treatment in each individual experimental run. Then, a test of marginal means was done to determine the estimated percent hatching in each treatment over all runs. […] Analysis were performed on four different treatment groups: continuous 100 ppm, short term 100 ppm, continuous 10 ppm, and short term 10 ppm.
Because of the complexity of the experimental design and the large variation in hatch rates between different testing blocks, as well as the long duration over which testing has occurred, the statistical analysis is not straight-forward. First, within each block bi, the mean μi hatch rate (in percent) in the solvent control is calculated (in blocks with both short-term and continuous exposure, these two testing methods are analyzed independently). For each treatment hatch rate xj in block bi, a “hatching score” hij is the calculated as
The arcsine transformation is used to account for the fact that calculating the ratio of hatching is subject to non-linear effects. A general linear model is then used to account for additional block effects, and Dunnett's adjustment is used as the multiple comparison procedure to control the familywise error rate, as all treatments are compared to the solvent control. […] These controls were not used in the calculation of significance other than as controls common to each block in the unbalanced incomplete block design experiment.
The estimate column contains an estimate of the difference in hatch rate modulation between the solvent control and the treatment. This is estimated as a percentage hatch rate of the control. For reliability of the magnitude of the effect, more than one block is needed. Due to the high variation in solvent control hatch rates between blocks, some percentage modulations may fall outside the expected range (e.g., below −100%).
Due to the arctangent/tangent conversions, the standard errors of the mean (column SE) are very rough estimates of the standard error. However, the p value column contains the actual p-values.
Data set [3] is described as follows: Solubility in the solvent system / water. Format: physicochemical. As to the method: Several tested compounds were obtained commercially while others were synthesized from simple starting materials (see Example 1, supra). Compounds were dissolved in a solvent containing 0.08% ethanol, 0.08% TRITON™ X-100, and nano-purified water and were tested at 10 and 100 ppm.
Almost all compounds were tested at 100 ppm, provided they were sufficiently soluble in the solvent system at this concentration.

Data set [4] concerns M. incognita. In words: RKN quick sand assay (cucumber root galling). Particulars: 15 days after infestation with 2,000 M. incognita eggs; abamectin 100 ppm drench; solvent control 24%. Format: in vivo. As to the method: Deionized water, 100 ppm abamectin, and solvent were used as controls. […] To date, compounds were tested in three different experimental runs, with some compounds being tested twice and others once. A beta regression model was used to estimate the percent of galling for each treatment in each run. As with the hatching data analyses, a test of marginal means was performed to determine the estimated percent of galling in each treatment over all runs.

“And” between values parts separate entries of the source, which are not always exact repeats. Equal entries are not always repeated. Where two headings read alike, the source gives them in different places. Marks after values point to notes of the source that are not given here.

Turning to `Cc1ccc(C=C[N+](=O)[O-])cc1` [4-M-BNS, 4-methyl beta-nitrostyrene], in data set [1] (100 ppm solution), the “SCN Population Densities 34 DAP” value is 5,800 # eggs per 100 cm^3 soil; the “SCN Population Densities 64 DAP” value is 7,400 # eggs per 100 cm^3 soil; the “Biomass at harvest, total” value is given as 654 g; the “Biomass at harvest, seed” value was determined as 322 g. Moreover, the “SCN Population Densities harvest” value in data set [1] (100 ppm solution, at harvest) is 9,800 # eggs per 100 cm^3 soil. For the same molecule, in data set [1] (in vivo), the “seed weights (analogous to grain yield) versus susceptible/water treatment” value was “significantly greater” and the “soil SCN egg population densities 64 days after planting versus susceptible/water treatment” value is recorded as “significantly lower”.
Turning to `COc1cc(/C=C/C=O)ccc1O` [4H3MC], the “estimate (difference in hatch rate modulation between solvent control and treatment, as percentage hatch rate of the control)” value in data set [2] is reported as −55.3%.
For the molecule `C(=C\C1SCCS1)/c1ccccc1` [JSK3011], the solubility in water entry in data set [3] (not sufficiently soluble at 100 ppm in solvent system, only tested at 10 ppm) is “low solubility”.
On to `O=C(/C=C/c1ccc(Cl)cc1)C1CC1` [JSK3087, 4-Chlorostyryl Cyclopropyl Ketone], for which the “soil SCN egg population densities 64 days after planting versus susceptible/water treatment” value in data set [1] (100 ppm solution, LSD alpha = 0.10) is “significantly lower”. Further, in data set [1] (100 ppm solution), the “SCN Population Densities 34 DAP” value is on record as 7,275 # eggs per 100 cm^3 soil; the “SCN Population Densities 64 DAP” value is recorded as 4,700 # eggs per 100 cm^3 soil; the “Biomass at harvest, total” value is 668 g; the “Biomass at harvest, seed” value is given as 327 g. For the same molecule, in data set [1] (100 ppm solution, at harvest), the “SCN Population Densities harvest” value is listed as 6,400 # eggs per 100 cm^3 soil. Further, the “seed weights (analogous to grain yield) versus susceptible/water treatment” value in data set [1] (at harvest) is “significantly greater”.
On to `O=CC(Br)=Cc1ccccc1` [a-bromocinnamaldehyde], for which the solubility in water result in data set [3] was “low solubility”.
Consider `N#CC=Cc1ccccc1` [cinnamonitrile], for which the “estimate (difference in hatch rate modulation between solvent control and treatment, as percentage hatch rate of the control)” value in data set [2] is given as −53.8%.
The same measure, in the same setting: to `CC(=O)C=Cc1ccccc1` [methyl styryl ketone] belongs −75.4% and −85%.
Still for that read-out and setting: the figure for `O=S(=O)([O-])[O-].[Zn+2]` [zinc sulfate, reference compound] is 54.7% and 54.9%.
Regarding abamectin, in data set [4], the “percentage galling of cucumber roots” value is listed as 0%.

The values above are taken from patent US12568963B2, “Compounds and compositions for nematode treatment” (IOWA STATE UNIVERSITY RESEARCH FOUNDATION, INC., priority 2020, dated 2026).
